From publication PMC11984407, “A natural small molecule isoginkgetin alleviates hypercholesterolemia and atherosclerosis by targeting ACLY” (Theranostics, 2025)

Tests used:
ACLY = biological target: T1, ACLY (Mesocricetus auratus, UniProt A0A1U7RF50); assay: ACLY activity in vivo, hamster liver extracts (MDH-coupled method)
T1 construct: from tissue; host or cells: liver of hamsters and of Ldlr-/- hamsters dosed with ISOGK
T1 sequence (A0A1U7RF50 1-1101): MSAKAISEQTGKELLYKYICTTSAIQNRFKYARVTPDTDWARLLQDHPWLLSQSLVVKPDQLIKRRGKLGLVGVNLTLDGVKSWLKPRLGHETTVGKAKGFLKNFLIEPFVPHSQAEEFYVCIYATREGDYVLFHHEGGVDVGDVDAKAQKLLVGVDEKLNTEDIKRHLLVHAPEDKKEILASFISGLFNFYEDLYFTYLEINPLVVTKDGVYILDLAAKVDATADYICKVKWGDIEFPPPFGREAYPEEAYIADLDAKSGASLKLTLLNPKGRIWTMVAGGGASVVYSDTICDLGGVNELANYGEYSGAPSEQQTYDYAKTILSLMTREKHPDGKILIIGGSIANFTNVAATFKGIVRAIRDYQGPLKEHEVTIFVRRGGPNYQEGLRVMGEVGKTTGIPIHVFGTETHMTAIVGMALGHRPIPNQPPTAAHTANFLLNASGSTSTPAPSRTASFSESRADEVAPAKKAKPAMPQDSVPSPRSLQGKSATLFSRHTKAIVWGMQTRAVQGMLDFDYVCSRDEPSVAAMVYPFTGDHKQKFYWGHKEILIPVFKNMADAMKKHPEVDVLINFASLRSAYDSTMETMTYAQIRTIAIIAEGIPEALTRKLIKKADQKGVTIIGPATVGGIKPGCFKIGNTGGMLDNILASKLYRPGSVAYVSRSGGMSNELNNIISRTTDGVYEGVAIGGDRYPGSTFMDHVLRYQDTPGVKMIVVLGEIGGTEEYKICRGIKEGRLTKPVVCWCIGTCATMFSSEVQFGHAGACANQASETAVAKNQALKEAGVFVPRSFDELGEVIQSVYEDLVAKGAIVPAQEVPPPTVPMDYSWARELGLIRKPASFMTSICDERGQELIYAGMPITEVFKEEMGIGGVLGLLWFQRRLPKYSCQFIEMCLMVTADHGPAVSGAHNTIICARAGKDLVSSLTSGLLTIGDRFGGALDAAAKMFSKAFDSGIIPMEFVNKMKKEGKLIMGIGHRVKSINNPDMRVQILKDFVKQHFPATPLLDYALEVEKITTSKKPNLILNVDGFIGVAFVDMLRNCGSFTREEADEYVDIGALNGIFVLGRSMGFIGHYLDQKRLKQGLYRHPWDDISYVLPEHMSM
Experimental: The activity of the ACLY enzyme was assayed utilizing malate dehydrogenase (MDH)-coupled method kits (BC4240, Solarbio, Beijing, China). In summary, liver extracts were incubated in a reaction buffer comprising 20 mM citrate, 10 mM MgCl₂, 10 mM DTT, 0.5 U/ml of malic dehydrogenase, 0.33 mM CoASH, and 0.14 mM NADH, both in the presence and absence of 5 mM ATP. The quantity of oxaloacetate produced by ACLY catalysis was determined by measuring the alteration in absorbance at 340 nm, which corresponds to the depletion of NADH during the MDH-catalyzed reaction. After accounting for background variations in absorbance in the absence of ATP, the relative ACL activities were computed by normalizing the data to the weight of the liver tissue.

Ldlr-/- hamsters = assay: High cholesterol diet-fed Ldlr-/- hamsters; format: in vivo, hamster
Experimental: Syrian golden hamsters with a deficiency in the low-density lipoprotein receptor (Ldlr) gene were generated using the clustered regularly interspaced short palindromic repeats (CRISPR) and CRISPR-associated protein 9 (Cas9) gene editing system, as previously described. Male Ldlr^-/- hamsters at 8-week-old were randomly divided into three groups. The animals were administered with vehicle, ISOGK (2 mg/kg/day), or ISOGK (5 mg/kg/day) for a period of four weeks. The hamsters were maintained on a 14-h light/10-h dark cycle at 24 °C and were fed a 1.25% high cholesterol diet. Unless otherwise stated, the hamsters were fasted for 12 h prior to euthanasia. All experiments were conducted in accordance with the principles of experimental animal care (NIH publication no. 85-23, revised 1996) and were approved by the Animal Care and Use Committee of Peking University (approval number LA2022-147).
Plasma levels of TC, TG, LDL-C, and high-density lipoprotein cholesterol (HDL-C) were determined following the manufacturer's instructions. Liver tissues (30-40 mg) were homogenized in 0.5 mL of cold PBS for hepatic TG and cholesterol measurement. A 0.4 mL homogenate was combined with 1.4 mL of a CHCl3/CH3OH mixture (2:1, v/v) and shaken overnight at room temperature. Following centrifugation at 2,500 × g for a period of 10 min, the organic phase was meticulously transferred and permitted to air-dry. The residual organic material was then reconstituted in 800 μL of ethanol containing 1% Triton X-100, whereby the ethanol served to solubilize the material.

COc1ccc(-c2cc(=O)c3c(O)cc(O)c(-c4cc(-c5cc(=O)c6c(O)cc(O)cc6o5)ccc4OC)c3o2)cc1 [ISOGK, Isoginkgetin]
ACLY enzyme activity in liver tissue (ACLY; Ldlr-/- hamsters): significantly inhibits ACLY activity | ACLY enzyme activity in liver tissue (ACLY; high cholesterol diet hamsters, 4 weeks): significantly inhibits ACLY activity | lipid accumulation in aortic sinus (Oil Red O) (Ldlr-/- hamsters): significantly reduced lipid accumulation | lipid accumulation in liver tissues (Nile Red) (Ldlr-/- hamsters): significantly reduced lipid accumulation | reduction in hepatic TC vs vehicle (Ldlr-/- hamsters; 2 mg/kg/day i.p.): 25.89% | reduction in hepatic TC vs vehicle (Ldlr-/- hamsters; 5 mg/kg/day i.p.): 35.75% | decrease in serum TG levels (Figure 5B) (Ldlr-/- hamsters; high dose 5 mg/kg/day): 61.32% | decrease in serum non-HDL-C (Ldlr-/- hamsters; high dose 5 mg/kg/day): 51.76% | reduction in serum TC (Figure 5C) (Ldlr-/- hamsters; high dose 5 mg/kg/day): 52.15% | reduction in serum TG (Figure 5C) (Ldlr-/- hamsters; high dose 5 mg/kg/day): 51.38% | reduction of aortic plaque area (Oil Red O) vs vehicle (Ldlr-/- hamsters; high-dose 5 mg/kg/day): 29.85% | serum HDL-C levels (Ldlr-/- hamsters; low and high doses): without affecting HDL-C levels | decrease in serum TG levels (Figure 5B) (Ldlr-/- hamsters; low dose 2 mg/kg/day): 47.57% | decrease in serum non-HDL-C (Ldlr-/- hamsters; low dose 2 mg/kg/day): 28.16% | reduction in serum TC (Figure 5C) (Ldlr-/- hamsters; low dose 2 mg/kg/day): 28.72% | reduction in serum TG (Figure 5C) (Ldlr-/- hamsters; low dose 2 mg/kg/day): 47.99% | reduction of aortic plaque area (Oil Red O) vs vehicle (Ldlr-/- hamsters; low-dose 2 mg/kg/day): 21.74%
